In patent EP4623908A1, “USE OF (-)-EPIGALLOCATECHIN GALLATE COMPOUND” (CF Pharmtech, Inc., priority 2022, dated 2024):

Tests used:
[1] = Plasma pharmacokinetics in rats after tracheal nebulization, intravenous injection and oral gavage (Example 1); format: in vivo, SD rats; settings: for AUC(0-t) / Cmax: male, Sprague-Dawley; for AUC(0-t) / Cmax / F: rat plasma
Excerpt: Example 1: Plasma pharmacokinetics study in rats after administration of EGCG via tracheal nebulization, intravenous injection, and oral gavage.
Materials: EGCG, content > 98wt%.
Preparation of tracheal nebulization solution: Accurately weigh the EGCG compound and dissolve it in Solvent 1 to prepare a clear and transparent drug solution. Solvent 1 is composed of purified water, citric acid, and sodium citrate.
Preparation of intravenous injection and oral gavage solutions: Accurately weigh the EGCG compound and dissolve it in saline.
Animals: Clean-grade male SD rats, provided by Qinglongshan Animal Breeding Farm in Jiangning District, Nanjing City, with a body weight range of 160-200g.
Tracheal Nebulization (inh): Rats in each tracheal nebulization group were anesthetized with isoflurane and fixed in a restraint device. An anesthetic laryngoscope was used to press the animal's tongue root and expose the glottis. A micro liquid nebulizer needle (blunt tip) filled with a specific amount of EGCG solution, was gently inserted into the trachea. The drug was nebulized into the lungs, the needle was quickly withdrawn, and the rat was removed from the holder, with its head rotated left and right to ensure even distribution of the drug across the lung lobes. The nebulized inhalation doses were 1.6 mg/kg, 3.2 mg/kg, and 6.4 mg/kg, with 5 rats in each dose group.
Oral Gavage (po): The dosage for each rat was determined based on body weight. An appropriate size syringe and gavage tube were used to administer the drug orally. The dose was 60 mg/kg, with 5 rats.
Intravenous Injection (iv): EGCG was administered via tail vein injection. The dose was 3.2 mg/kg, with 5 rats in total.
Blood samples were collected from the experimental groups via the orbital venous plexus before administration (0 min) and at 5 min, 15 min, 30 min, 1 h, 2 h, 4 h, and 6 h after administration (8 sampling points in total), with approximately 50-100 µL of whole blood collected at each point.
After collection at the specified time points, blood samples were placed in heparinized tubes, centrifuged, and plasma was separated into centrifuge tubes, then stored at -70°C for subsequent analysis.
Mass spectrometry conditions: Determined using UPLC-MS/MS. Chromatographic conditions: Determined using. Pharmacokinetic parameters were calculated using the WinNonlin pharmacokinetic software with statistical moment methods for each animal.

[2] = cited from earlier work
[3] = Pharmacokinetics of low-dose tracheal nebulization and oral gavage in rat plasma and lungs (Example 3); format: in vivo, rats; settings: for Lung AUC0-t / Lung Cmax: rat lung tissue, average
Protocol: As described in Example 1, the administration methods of oral gavage or tracheal nebulization of different doses of EGCG solution in rats were used to study the pharmacokinetic parameters of the drug in the lungs. The tracheal nebulization doses were 0.05 mg/kg, 0.1 mg/kg, 0.2 mg/kg, and 0.4 mg/kg, with 6-8 rats per dose group. The oral gavage dose was 60 mg/kg, with 6 rats.
The blood sampling method and sample processing were as described in Example 2. The blood collection time points for this experiment were 5 minutes, 2 hours, 6 hours, 8 hours, 10 hours, and 16 hours post-administration, with approximately […] of whole blood collected at each time point.

[4] = inhaled, tracheal nebulization (inh) 1.6 mg/kg
[5] = inhaled, tracheal nebulization (inh) 3.2 mg/kg
[6] = inhaled, tracheal nebulization (inh) 6.4 mg/kg
[7] = intravenous injection (iv) 3.2 mg/kg
[8] = Tracheal Nebulization (inh) 0.05 mg/kg
[9] = Tracheal Nebulization (inh) 0.1 mg/kg
[10] = Tracheal Nebulization (inh) 0.2 mg/kg
[11] = Tracheal Nebulization (inh) 0.4 mg/kg
[12] = rat, after oral gavage 60 mg/kg

## O=C(O[C@@H]1Cc2c(O)cc(O)cc2O[C@@H]1c1cc(O)c(O)c(O)c1)c1cc(O)c(O)c(O)c1 [EGCG, (-)-Epigallocatechin gallate]
[1]; [4]
  AUC(0-t): 409 ± 75.6 ng·h/mL
  Cmax: 298 ± 91.9 ng/mL
[1]; [5]
  AUC(0-t): 1120 ± 220 ng·h/mL
  Cmax: 1120 ± 127 ng/mL
[1]; [6]
  AUC(0-t): 1860 ± 595 ng·h/mL
  Cmax: 2020 ± 658 ng/mL
[1]; [7]
  AUC(0-t): 1680 ± 614 ng·h/mL
  Cmax: 1920 ± 789 ng/mL
[1]; oral gavage (po) 60 mg/kg
  AUC(0-t): 372 ± 167 ng·h/mL
  Cmax: 118 ± 73 ng/mL
  F: 1.2±0.0%
[1]; po 60 mg/kg: inh 1.6 mg/kg, rat
  dose ratio between oral gavage and inhalation when achieving the same plasma exposure level: 37.5 times
[1]; tracheal nebulization (inh) 1.6 mg/kg
  F: 48.7±9.0%
[1]; tracheal nebulization (inh) 3.2 mg/kg
  F: 66.9±13.1%
[1]; tracheal nebulization (inh) 6.4 mg/kg
  F: 55.3±17.7%
[2]; daily oral intake at doses equal to or higher than 800 mg
  serum transaminases: significantly increased serum transaminases
[2]; oral
  body weight of patients: significantly reduce the body weight
[3]; lung, inhaled or intranasal, rat, inhalation dose above 0.2 mg/kg, read-out: maximum drug concentration (Cmax) in the lungs
  Cmax: > 1000 ng/mL
[3]; [8]
  Lung AUC0-t: 284.7 ng·h/mL
  Lung Cmax: 79.6 ng/mL
[3]; [9]
  Lung AUC0-t: 1031.4 ng·h/mL
  Lung Cmax: 220.4 ng/mL
[3]; [10]
  Lung AUC0-t: 3082.7 ng·h/mL
  Lung Cmax: 1038.0 ng/mL
[3]; [11]
  Lung AUC0-t: 11764.1 ng·h/mL
  Lung Cmax: 3180.0 ng/mL
[3]; oral gavage (po) 60 mg/kg
  Lung AUC0-t: 226.4 ng·h/mL
  Lung Cmax: 43.4 ng/mL
[3]; [12]
  lung concentration: less than 100 ng/mL
  plasma drug concentrations: less than 100 ng/mL
[3]; rat, inh 0.05 mg/kg vs oral gavage 60 mg/kg
  inhalation dose as fraction of the oral dose at comparable lung drug concentration: 1/1200
[3]; rat, oral gavage 60 mg/kg
  peak concentration in the lungs of the oral administration: 32 ng/mL
[3]; rat, tracheal nebulization of 0.1, 0.2, or 0.4 mg/kg, for up to 16 hours
  drug concentration in the lungs: greater than 50 ng/mL
